The results in this text go back to patent publication US7074789B2, “Kinase inhibitors” (Amgen Inc., priority 1999, dated 2006).

What all share (format): biochemical
One test addresses T1, Kdr (Homo sapiens, UniProt P35968).
T1 construct: Kinases are expressed as either kinase domains or full length constructs; made in house
The test is described as follows: Kinase inhibition assay (33P transfer), Kdr. Conditions: read-out: KDR-1. In a few lines: (§1)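 Kinase domains or full-length kinases, GST- or His-tagged and expressed in E. coli or baculovirus/High Five cells, transferred 33PO4 from ATP onto plate-bound poly(Glu,Tyr) 4:1 or poly(Arg,Ser) 3:1. After incubation, plates were washed with 0.5% phosphoric acid and counted by liquid scintillation.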

For another test, the target named is T2, Zap-70 (Homo sapiens, UniProt P43403).
T2 construct: Kinases are expressed as either kinase domains or full length constructs; made in house
T2 sequence (P43403 1-619): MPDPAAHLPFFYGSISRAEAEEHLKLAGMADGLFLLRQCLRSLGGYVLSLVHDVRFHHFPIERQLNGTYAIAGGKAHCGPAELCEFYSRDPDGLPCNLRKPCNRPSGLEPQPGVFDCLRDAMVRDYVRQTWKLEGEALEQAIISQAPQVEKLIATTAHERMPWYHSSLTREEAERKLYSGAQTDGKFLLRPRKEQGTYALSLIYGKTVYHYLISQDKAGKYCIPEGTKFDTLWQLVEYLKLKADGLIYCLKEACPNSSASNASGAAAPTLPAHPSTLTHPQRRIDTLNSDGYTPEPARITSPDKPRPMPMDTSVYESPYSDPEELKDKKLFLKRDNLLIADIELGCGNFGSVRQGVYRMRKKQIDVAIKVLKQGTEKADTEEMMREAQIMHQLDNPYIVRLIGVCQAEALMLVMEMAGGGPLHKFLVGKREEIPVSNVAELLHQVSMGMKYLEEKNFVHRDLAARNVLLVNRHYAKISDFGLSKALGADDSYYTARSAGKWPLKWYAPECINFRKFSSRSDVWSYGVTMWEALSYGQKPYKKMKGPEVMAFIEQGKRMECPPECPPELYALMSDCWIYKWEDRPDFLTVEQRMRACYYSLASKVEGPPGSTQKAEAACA
As to the kind of experiment: Kinase inhibition assay (33P transfer), Zap-70. Conditions: read-out: Zap-1. A digest of the protocol: as §1

The next test concerns the target T3, Lck (Homo sapiens, UniProt P06239).
T3 construct: Kinases are expressed as either kinase domains or full length constructs; made in house
The test is described as follows: Kinase inhibition assay (33P transfer), Lck. Conditions: read-out: Lck-1. A digest of the protocol:
as §1

The next test has as its target T4, c-Met (Homo sapiens, UniProt P08581).
T4 construct: Kinases are expressed as either kinase domains or full length constructs; made in house
The test is described as follows: Kinase inhibition assay (33P transfer), c-Met. The settings on record: Table 2, kinase inhibition class; read-out: Met-1. A digest of the protocol: (§2)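 Recombinant kinase domains or full-length GST- or His-tagged constructs, from E. coli or baculovirus/High Five cells, sometimes with regulatory polypeptides. Transfer of 33P from ATP to plate-bound poly(Glu,Tyr) 4:1 or poly(Arg,Ser) 3:1 counted by liquid scintillation after phosphoric acid wash; IC50 is the concentration halving incorporation.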

A further test has as its target T5, Itk (Homo sapiens, UniProt Q08881).
T5 construct: Kinases are expressed as either kinase domains or full length constructs; made in house
T5 sequence (Q08881 1-620): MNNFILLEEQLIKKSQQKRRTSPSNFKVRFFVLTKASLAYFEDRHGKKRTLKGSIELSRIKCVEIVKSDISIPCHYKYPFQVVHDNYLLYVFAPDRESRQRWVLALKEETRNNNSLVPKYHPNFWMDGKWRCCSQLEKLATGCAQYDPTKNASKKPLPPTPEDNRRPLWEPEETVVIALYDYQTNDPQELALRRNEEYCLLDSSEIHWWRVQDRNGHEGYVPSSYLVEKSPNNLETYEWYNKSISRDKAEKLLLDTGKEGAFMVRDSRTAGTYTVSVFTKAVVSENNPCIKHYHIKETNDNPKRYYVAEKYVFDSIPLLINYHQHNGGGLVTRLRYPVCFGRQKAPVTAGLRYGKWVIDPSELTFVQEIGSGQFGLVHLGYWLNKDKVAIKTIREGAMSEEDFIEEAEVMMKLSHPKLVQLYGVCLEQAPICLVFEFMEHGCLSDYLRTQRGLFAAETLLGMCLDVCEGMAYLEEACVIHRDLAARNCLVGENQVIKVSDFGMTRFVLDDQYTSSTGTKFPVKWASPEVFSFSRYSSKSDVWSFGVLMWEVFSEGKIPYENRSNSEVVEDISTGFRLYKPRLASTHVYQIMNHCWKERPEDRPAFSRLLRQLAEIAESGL
As to the kind of experiment: Kinase inhibition assay (33P transfer), Itk. Conditions: read-out: Itk-1. A digest of the protocol: as §2

The target in a further test is T6, Tek (Homo sapiens, UniProt Q02763).
T6 construct: Kinases are expressed as either kinase domains or full length constructs; made in house
As to the kind of experiment: Kinase inhibition assay (33P transfer), Tek. The settings on record: read-out: Tek-1. The source says:
The inhibitor compounds described herein are screened in the following manner. Kinases suitable for use in the following protocol to determine kinase activity of the compounds described herein include, -but are not limited to: Lck, Lyn, Src, Fyn, Syk, Zap-70, Itk, Tec, Btk, EGFR, ErbB2, Kdr, Flt-1, Flt-3, Tek, c-Met, InsR, and AKT.
Kinases are expressed as either kinase domains or full length constructs fused to glutathione S-transferase (GST) or polyHistidine tagged fusion proteins in either E. colior Baculovirus-High Five expression systems. They are purified to near homogeneity by affinity chromatography essentially as previously described (Lehr et al., 1996; Gish et al., 1995). In some instances, kinases are co-expressed or mixed with purified or partially purified regulatory polypeptides prior to measurement of activity.
Kinase activity and inhibition are measured essentially by established protocols (Braunwalder et al., 1996). Briefly, The transfer of ^33PO4 from ATP to the synthetic substrates poly(Glu, Tyr) 4:1 or poly(Arg, Ser) 3:1 attached to the bioactive surface of microtiter plates serves as the basis to evaluate enzyme activity. After an incubation period, the amount of phosphate transferred is measured by first washing the plate with 0.5% phosphoric acid, adding liquid scintillant, and then counting in a liquid scintillation detector. The IC50 is determined by the concentration of compound that causes a 50% reduction in the amount of […] incorporated onto the substrate bound to the plate.

In a further test the target is T7, EGFR (Homo sapiens, UniProt P00533).
T7 construct: Kinases are expressed as either kinase domains or full length constructs; made in house
T7 sequence (P00533 25-1210, species assumed): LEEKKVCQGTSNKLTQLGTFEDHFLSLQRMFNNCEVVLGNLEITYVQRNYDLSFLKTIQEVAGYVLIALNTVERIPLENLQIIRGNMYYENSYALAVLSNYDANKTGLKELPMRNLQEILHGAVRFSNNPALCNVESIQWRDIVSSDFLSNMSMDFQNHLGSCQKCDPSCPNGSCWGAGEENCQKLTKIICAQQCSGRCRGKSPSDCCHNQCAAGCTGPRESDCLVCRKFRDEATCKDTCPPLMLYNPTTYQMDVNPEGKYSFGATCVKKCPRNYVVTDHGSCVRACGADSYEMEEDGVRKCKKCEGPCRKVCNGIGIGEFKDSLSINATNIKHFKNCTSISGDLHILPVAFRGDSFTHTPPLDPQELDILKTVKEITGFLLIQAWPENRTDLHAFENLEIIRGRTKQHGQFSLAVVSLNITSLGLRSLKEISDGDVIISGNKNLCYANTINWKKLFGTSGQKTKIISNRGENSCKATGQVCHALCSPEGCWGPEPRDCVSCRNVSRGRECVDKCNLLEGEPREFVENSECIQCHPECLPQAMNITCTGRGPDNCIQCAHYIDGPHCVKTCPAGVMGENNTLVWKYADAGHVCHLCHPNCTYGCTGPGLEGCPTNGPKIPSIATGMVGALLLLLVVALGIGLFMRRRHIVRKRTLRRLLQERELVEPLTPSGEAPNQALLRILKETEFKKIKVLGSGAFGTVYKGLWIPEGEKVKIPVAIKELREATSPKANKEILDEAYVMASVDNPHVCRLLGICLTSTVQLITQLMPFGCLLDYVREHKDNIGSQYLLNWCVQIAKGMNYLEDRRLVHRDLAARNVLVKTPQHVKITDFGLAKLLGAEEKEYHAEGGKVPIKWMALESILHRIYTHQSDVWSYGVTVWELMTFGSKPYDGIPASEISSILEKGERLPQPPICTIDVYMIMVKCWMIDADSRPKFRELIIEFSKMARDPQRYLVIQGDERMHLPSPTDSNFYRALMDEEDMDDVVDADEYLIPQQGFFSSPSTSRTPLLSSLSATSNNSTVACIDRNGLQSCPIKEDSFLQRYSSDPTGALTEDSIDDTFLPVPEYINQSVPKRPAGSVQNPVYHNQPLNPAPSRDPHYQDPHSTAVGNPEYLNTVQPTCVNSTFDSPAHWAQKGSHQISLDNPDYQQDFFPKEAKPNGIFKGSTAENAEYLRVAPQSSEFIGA
The test is described as follows: Kinase inhibition assay (33P transfer), EGFR. The settings on record: Table 2, kinase inhibition class; read-out: EGFR-1. A digest of the protocol:
as §2

A further test addresses T8, AKT (Homo sapiens, UniProt Q9Y243).
T8 construct: Kinases are expressed as either kinase domains or full length constructs; made in house
The test is described as follows: Kinase inhibition assay (33P transfer), AKT. Conditions: Table 2, kinase inhibition class; read-out: AKT3-1. A digest of the protocol:
as §1

Read-outs that look alike come from different tables or passages of the source.

T4 sequence (P08581 25-1390): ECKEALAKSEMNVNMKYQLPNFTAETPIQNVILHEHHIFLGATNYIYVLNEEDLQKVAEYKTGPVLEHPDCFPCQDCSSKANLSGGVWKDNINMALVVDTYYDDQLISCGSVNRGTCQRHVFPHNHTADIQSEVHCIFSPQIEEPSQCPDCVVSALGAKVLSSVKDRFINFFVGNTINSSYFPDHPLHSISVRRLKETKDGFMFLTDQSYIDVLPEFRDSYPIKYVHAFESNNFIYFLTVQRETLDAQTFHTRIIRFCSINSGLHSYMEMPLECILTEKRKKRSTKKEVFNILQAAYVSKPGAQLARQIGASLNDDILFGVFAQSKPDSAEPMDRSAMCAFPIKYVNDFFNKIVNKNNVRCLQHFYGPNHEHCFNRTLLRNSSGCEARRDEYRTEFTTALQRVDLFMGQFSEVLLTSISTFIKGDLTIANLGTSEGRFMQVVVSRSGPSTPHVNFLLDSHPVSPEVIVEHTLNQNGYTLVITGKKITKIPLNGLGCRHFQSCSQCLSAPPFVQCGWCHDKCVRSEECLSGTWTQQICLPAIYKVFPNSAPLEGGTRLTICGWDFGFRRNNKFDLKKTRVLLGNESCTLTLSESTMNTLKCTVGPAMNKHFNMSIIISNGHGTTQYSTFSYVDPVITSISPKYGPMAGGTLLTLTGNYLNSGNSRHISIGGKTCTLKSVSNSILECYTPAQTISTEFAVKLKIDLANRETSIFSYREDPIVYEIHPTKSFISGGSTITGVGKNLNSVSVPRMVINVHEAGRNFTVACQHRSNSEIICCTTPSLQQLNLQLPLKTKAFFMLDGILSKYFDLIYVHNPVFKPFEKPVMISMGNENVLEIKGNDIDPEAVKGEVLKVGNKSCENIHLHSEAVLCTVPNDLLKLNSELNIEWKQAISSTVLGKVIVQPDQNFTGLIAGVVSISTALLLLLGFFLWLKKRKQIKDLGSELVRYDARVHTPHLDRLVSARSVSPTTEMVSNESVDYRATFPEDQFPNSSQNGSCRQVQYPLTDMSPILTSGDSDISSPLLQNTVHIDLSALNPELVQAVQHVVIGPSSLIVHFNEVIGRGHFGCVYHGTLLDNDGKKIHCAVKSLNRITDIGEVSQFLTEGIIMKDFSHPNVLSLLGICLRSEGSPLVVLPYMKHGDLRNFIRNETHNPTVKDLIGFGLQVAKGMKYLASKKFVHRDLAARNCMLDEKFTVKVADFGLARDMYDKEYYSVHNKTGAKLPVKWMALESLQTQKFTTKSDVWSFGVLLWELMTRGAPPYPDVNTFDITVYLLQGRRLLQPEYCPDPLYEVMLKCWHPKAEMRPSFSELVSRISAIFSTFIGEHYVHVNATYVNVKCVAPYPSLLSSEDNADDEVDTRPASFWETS
T1 sequence (P35968 20-1356, species assumed): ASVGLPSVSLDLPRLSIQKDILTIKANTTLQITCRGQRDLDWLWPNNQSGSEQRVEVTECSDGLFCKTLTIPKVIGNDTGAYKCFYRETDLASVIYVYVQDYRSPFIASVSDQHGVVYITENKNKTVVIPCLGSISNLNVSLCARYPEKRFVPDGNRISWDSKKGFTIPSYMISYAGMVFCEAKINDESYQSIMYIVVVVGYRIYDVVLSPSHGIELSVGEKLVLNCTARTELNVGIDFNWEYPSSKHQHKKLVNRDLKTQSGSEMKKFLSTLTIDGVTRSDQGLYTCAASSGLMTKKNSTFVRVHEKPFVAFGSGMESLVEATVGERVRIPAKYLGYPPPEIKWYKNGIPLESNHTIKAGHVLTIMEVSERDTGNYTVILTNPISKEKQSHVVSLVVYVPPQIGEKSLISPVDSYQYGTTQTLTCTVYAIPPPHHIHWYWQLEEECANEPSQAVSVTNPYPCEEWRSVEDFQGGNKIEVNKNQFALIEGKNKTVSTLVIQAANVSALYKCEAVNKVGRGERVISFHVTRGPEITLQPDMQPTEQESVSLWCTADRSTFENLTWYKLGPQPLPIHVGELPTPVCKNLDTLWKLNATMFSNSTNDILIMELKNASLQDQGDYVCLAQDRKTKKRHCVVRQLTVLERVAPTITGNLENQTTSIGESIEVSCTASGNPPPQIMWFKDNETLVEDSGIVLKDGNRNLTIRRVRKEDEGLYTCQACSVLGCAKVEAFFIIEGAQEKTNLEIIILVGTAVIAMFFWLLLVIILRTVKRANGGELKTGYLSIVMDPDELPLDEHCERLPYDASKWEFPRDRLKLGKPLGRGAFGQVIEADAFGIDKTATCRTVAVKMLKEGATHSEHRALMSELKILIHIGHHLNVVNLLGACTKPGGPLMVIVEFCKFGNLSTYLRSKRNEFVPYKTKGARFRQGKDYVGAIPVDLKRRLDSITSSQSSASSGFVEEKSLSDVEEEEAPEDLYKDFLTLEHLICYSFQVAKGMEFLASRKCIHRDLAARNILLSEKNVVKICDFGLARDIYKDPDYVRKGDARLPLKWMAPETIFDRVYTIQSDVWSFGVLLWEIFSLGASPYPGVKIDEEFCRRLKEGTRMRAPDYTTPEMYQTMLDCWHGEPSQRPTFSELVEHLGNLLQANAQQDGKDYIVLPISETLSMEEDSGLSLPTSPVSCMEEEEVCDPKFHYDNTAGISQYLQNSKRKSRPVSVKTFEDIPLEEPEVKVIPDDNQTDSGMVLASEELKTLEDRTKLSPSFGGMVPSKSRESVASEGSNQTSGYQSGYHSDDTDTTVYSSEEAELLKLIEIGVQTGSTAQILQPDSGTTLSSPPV
T8 sequence (Q9Y243 whole entry, the tested form may be a part): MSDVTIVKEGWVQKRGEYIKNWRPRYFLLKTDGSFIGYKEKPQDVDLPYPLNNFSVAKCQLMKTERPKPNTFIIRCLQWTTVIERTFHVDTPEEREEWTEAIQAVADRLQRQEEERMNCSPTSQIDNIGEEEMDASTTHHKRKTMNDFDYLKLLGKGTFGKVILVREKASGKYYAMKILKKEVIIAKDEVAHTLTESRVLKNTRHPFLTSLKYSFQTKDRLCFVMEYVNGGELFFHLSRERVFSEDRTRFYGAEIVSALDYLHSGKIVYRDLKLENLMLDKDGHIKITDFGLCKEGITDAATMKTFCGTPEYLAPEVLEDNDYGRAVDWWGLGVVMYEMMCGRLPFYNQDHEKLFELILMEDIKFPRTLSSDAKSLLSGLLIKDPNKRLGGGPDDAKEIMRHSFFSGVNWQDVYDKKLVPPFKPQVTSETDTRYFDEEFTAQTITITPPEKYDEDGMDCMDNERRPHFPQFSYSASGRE
T3 sequence (P06239 whole entry, species assumed, the tested form may be a part): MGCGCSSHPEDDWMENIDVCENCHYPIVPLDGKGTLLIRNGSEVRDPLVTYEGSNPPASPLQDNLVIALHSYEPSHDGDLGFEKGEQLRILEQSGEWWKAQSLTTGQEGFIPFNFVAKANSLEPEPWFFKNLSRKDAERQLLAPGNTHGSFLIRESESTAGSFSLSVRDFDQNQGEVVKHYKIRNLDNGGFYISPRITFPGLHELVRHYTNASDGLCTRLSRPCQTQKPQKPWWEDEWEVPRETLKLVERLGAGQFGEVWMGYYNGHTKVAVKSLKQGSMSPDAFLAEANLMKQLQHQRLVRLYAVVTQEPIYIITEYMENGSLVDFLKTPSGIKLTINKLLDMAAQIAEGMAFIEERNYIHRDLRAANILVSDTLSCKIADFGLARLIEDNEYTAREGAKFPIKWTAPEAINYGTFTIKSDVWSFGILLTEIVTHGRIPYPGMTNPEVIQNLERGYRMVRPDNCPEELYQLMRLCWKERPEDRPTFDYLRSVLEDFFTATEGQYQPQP

As for `Nc1ncnc(Nc2ccc(C3CCCCC3)cc2)n1` [Compound 1021], the IC50 at Kdr (Table 3), on Zap-70 (Table 3), at Lck (Table 3), at c-Met, at Itk (Table 3) and at Tek was greater than 16.7 µM in each case. In addition, the IC50 on EGFR is greater than 16.7 µM.

Consider `O=c1[nH]c2ccccc2n1-c1ncnc(Nc2cccc3ccccc23)n1` [Compound 683], for which the IC50 on Kdr, at Zap-70, at Lck, at c-Met, on Itk and on EGFR was greater than 12.7 µM in each case. The IC50 on AKT was greater than 12.7 µM.

Consider `NC(=O)[C@H](CO)Nc1ncnc(-n2c(=O)[nH]c3ccccc32)n1` [Compound 450], for which the IC50 on Kdr (Table 3), on Zap-70 (Table 3), at Lck (Table 3), on c-Met, on Itk (Table 3) and on EGFR was greater than 14.3 µM each time. In addition, the IC50 at AKT was greater than 14.3 µM.

As to `NC(=O)c1ccc(Nc2ncnc(-n3c(=O)[nH]c4ccccc43)n2)cc1` [Compound 419], the IC50 on Kdr (Table 3) is 1.15 to 6.91 µM; on Zap-70 (Table 3), greater than 13 µM; on Lck (Table 3) it was greater than 13 µM; on c-Met, greater than 13 µM; at Itk (Table 3), greater than 13 µM; on EGFR, greater than 13 µM. The IC50 on AKT is greater than 13 µM.

Regarding `O=c1[nH]c2ccccc2n1-c1ncnc(Nc2cccc(Cl)c2)n1` [Compound 457], the IC50 on Kdr (Table 3) is 1.18 to 7.08 µM; on Zap-70 (Table 3) it was greater than 13.3 µM; at Lck (Table 3), 10.3 to 13.3 µM; on c-Met, greater than 13.3 µM; at Itk (Table 3), greater than 13.3 µM; on EGFR, 7.08 to 10.3 µM. Further, the IC50 on AKT is greater than 13.3 µM.

Take `CC(C)(C)c1cc(Nc2ncnc(Cl)n2)[nH]n1` [Compound 975]: the IC50 on Kdr, on Zap-70, at Lck, at c-Met, at Itk and at EGFR was greater than 17.8 µM each time. Further, the IC50 on AKT was greater than 17.8 µM.

Regarding `O=c1[nH]c2ccccc2n1-c1ncnc(Nc2ccccn2)n1` [Compound 487], the IC50 on Kdr, on Zap-70, at Lck, at c-Met, at Itk and at EGFR was greater than 14.7 µM each time. At AKT, the IC50 is greater than 14.7 µM.

On to `O=c1[nH]c2ccccc2n1-c1ncnc(Nc2ccncc2)n1` [Compound 488], for which the IC50 is 1.31 to 7.86 µM at Kdr; greater than 14.7 µM at Zap-70; greater than 14.7 µM on Lck; greater than 14.7 µM on c-Met; greater than 14.7 µM on Itk; greater than 14.7 µM on EGFR. In addition, at AKT, the IC50 is greater than 14.7 µM.

On to `COc1cc(Nc2ncnc(N)n2)cc(OC)c1OC` [Compound 1024, N-(3,4,5-trimethoxy-phenyl)-[1,3,5]triazine-2,4-diamine], for which the IC50 at Kdr (Table 3), at Zap-70 (Table 3), at Lck (Table 3), on c-Met, at Itk (Table 3) and on Tek was greater than 16.2 µM throughout. On EGFR, the IC50 is greater than 16.2 µM.

On to `O=c1[nH]c2ccccc2n1-c1ncnc(Nc2ccc(F)c(Cl)c2)n1` [Compound 459], for which the IC50 on Kdr (Table 3) was 1.12 to 6.73 µM; on Zap-70 (Table 3), greater than 12.6 µM; at Lck (Table 3), greater than 12.6 µM; on c-Met, 6.73 to 9.81 µM; at Itk (Table 3), greater than 12.6 µM; on EGFR it was greater than 12.6 µM. Further, the IC50 on AKT is greater than 12.6 µM.

For `NC(=O)c1cccc(Nc2ncnc(-n3c(=O)[nH]c4ccccc43)n2)c1` [Compound 420], the IC50 at Kdr (Table 3) is 1.15 to 6.91 µM; on Zap-70 (Table 3), greater than 13 µM; at Lck (Table 3), greater than 13 µM; at c-Met, greater than 13 µM; at Itk (Table 3), greater than 13 µM; on EGFR, greater than 13 µM. In addition, the IC50 on AKT was greater than 13 µM.

`CCN(CC)CCCNc1ccc(-c2ncnc(Nc3cc(OC)c(OC)c(OC)c3)n2)cn1` [Compound 448]: the IC50 is 5.13 to 7.49 µM at Kdr (Table 3); greater than 9.62 µM on Zap-70 (Table 3); 0.855 to 5.13 µM on Lck (Table 3); greater than 9.62 µM on c-Met; greater than 9.62 µM on Itk (Table 3); greater than 9.62 µM on EGFR. For the same compound, the IC50 on AKT is greater than 9.62 µM.

As for `O=c1[nH]c2ccccc2n1-c1ncnc(Nc2cccc3cccnc23)n1` [Compound 688], the IC50 on Kdr is greater than 12.7 µM; at Zap-70, 6.75 to 9.85 µM; on Lck it was greater than 12.7 µM; at c-Met it was greater than 12.7 µM; at Itk, greater than 12.7 µM; on EGFR, greater than 12.7 µM. In addition, the IC50 at AKT is greater than 12.7 µM.

For `COc1cc(Nc2ncnc(-n3c(=O)sc4ccccc43)n2)cc(OC)c1OC` [Compound 424], the IC50 at Kdr (Table 3) was 5.83 to 8.51 µM; at Zap-70 (Table 3) it was greater than 10.9 µM; at Lck (Table 3) it was greater than 10.9 µM; at c-Met, greater than 10.9 µM; on Itk (Table 3) it was greater than 10.9 µM; at EGFR it was greater than 10.9 µM. For the same compound, the IC50 at AKT was greater than 10.9 µM.

In the case of `O=c1[nH]c2ccccc2n1-c1ncnc(Nc2ccc(O)cc2)n1` [Compound 682], the IC50 on Kdr was 1.25 to 7.49 µM; at Zap-70, greater than 14 µM; on Lck it was 7.49 to 10.9 µM; at c-Met, 7.49 to 10.9 µM; at Itk it was 10.9 to 14 µM; on EGFR it was 1.25 to 7.49 µM. The IC50 at AKT was greater than 14 µM.

Turning to `COc1cc(Nc2ncnc(-c3ccc(NCCCN)nc3)n2)cc(OC)c1OC` [Compound 472], the IC50 is 0.972 to 5.83 µM at Kdr; greater than 10.9 µM at Zap-70; greater than 10.9 µM on Lck; greater than 10.9 µM on c-Met; greater than 10.9 µM at Itk; greater than 10.9 µM at EGFR. For the same compound, at AKT, the IC50 is greater than 10.9 µM.

As for `N#Cc1cccc(Nc2ncnc(-n3c(=O)[nH]c4ccccc43)n2)c1` [Compound 486], the IC50 was 1.21 to 7.29 µM at Kdr; greater than 13.7 µM at Zap-70; 1.21 to 7.29 µM at Lck; greater than 13.7 µM at c-Met; greater than 13.7 µM on Itk; greater than 13.7 µM at EGFR. On AKT, the IC50 was greater than 13.7 µM.
